Reference: patent US10363305B2, “Anti-ganglioside compound for targeting cancer and generating antibodies” (REALIST PHARMA, INC., priority 2013, dated 2019)

Experiments:
Jurkat cells = experiment: Mixed lymphocyte reaction, 3H-thymidine incorporation, Jurkat stimulators; format: cell-based; settings: Jurkat cells alone
Protocol: (§1) EL4-GD2^+ cells and control Jurkat cells were treated with 25 μg/ml Mitomycin (Sigma) for 1 hr to arrest their proliferation. After the cells were washed three times with media to remove Mitomycin, they were plated in 96-well plates at 2×10^5 cells/well. Single cell suspensions of splenocytes were obtained from twice immunized (as above) and from vehicle injected control mice. Cells were separated following the protocol of the EASYSEP™ magnet (Stem Cell Tech). […] The T cells were plated at a ratio of 10:1 with Mitomycin-treated EL4 or Jurkat cells. As controls, cultures of T cells alone (no stimulating tumor cells) or T cells treated with ConcanavilinA were used. After 5 days of culture, 0.1μCi/well ^3H-thymidine (Sigma-Aldrich) was added. DNA-incorporated ^3H-thymidine was counted by liquid scintillation, and data are reported as average cpm±sd.

EL4-GD2+ cells = experiment: Mixed lymphocyte reaction, 3H-thymidine incorporation, EL4-GD2+ stimulators; format: cell-based, mouse; settings: EL4-GD2+ cells alone
Protocol: as §1

Water solubility = format: physicochemical
Protocol: The carbohydrates were synthesized as described (Gilbert et al., 2002, J Biol Chem, 277: 327), by modification of the process for phenylthio-GD2 (Tong et al., 2010, Cehm Biol, 17: 183) in which the thio-phenyl analog originally reported was substituted with an p-aminophenyl-(β-D-lactopyranoside (AP-Lac), from Toronto Research Chemicals), for subsequent conjugation to the dendrimer (see below). AP-GD2 was water soluble (>20 mg/ml), and was purified to >99% purity by size-exclusion (Superdex 30 16 mm×85 cm column, GE Health Care). The measured molecular weight of AP-GD2 was 1218 g/mol and corresponded to expected values. Structures were verified by 1D and 2D NMR spectroscopy and mass spectrometry (EI-MS) (see FIGS. 2A and B).

| Compound | 3H-thymidine incorporation of treated stimulator cells (Jurkat cells) [cpm] | 3H-thymidine incorporation of treated stimulator cells (EL4-GD2+ cells) [cpm] | solubility (Water solubility) [mg/mL] |
| --- | --- | --- | --- |
| CO[C@@]12[C@H](COC(N)=O)C3=C(C(=O)C(C)=C(N)C3=O)N1C[C@@H]1N[C@@H]12 [Mitomycin] | 107±5 | 188±4 |  |
| CC(=O)NC1C(OC2C(CO)OC(OC3C(CO)OC(Oc4ccc(N)cc4)C(O)C3O)C(O)C2OC2(C(=O)O)CC(O)C(NC(C)=O)C([C@H](O)C(CO)OC3(C(=O)O)CC(O)C(NC(C)=O)C([C@H](O)[C@H](O)CO)O3)O2)OC(CO)C(O)C1O (stereo partly drawn) [AP-GD2] |  |  | > 20 |
